# Experimental data published in a melting point compilation (Tetko et al.; mined from patent text by program, amines drawn as free bases though some values may be those of a salt).
row,SMILES,melting point
1,C#CCCCCCCCCCCCCCCCCCCCC(=O)OC(C)(C)C,44 to 45 °C
2,CC(=O)NC(C(=O)NCc1ccccc1)c1ncc[nH]1 (configuration not stated),228 to 230 °C
3,CC(C)(CC(O)(C(=O)O)C(F)(F)F)c1ccc(C(N)=O)cc1 (configuration not stated),244 to 245 °C
4,CN(C)S(=O)(=O)c1cc(-c2csc(=Nc3ccccc3)n2C2CC2)ccc1Cl,156 to 159 °C
5,CCCCOC(=O)[C@H](Cc1ccc(O)cc1)NC(=O)C1(NC(=O)C2(S)CCCC2)CCCC1,106 to 107 °C
6,CCOC(=O)C(CC(=O)c1ccc(Oc2ccccc2)cc1)SC(=O)c1ccccc1 (configuration not stated),95 to 96 °C
7,O=[N+]([O-])c1cc(-c2cn3ncsc3n2)cc(O)c1O,278 to 280 °C
8,CCCCc1nc2c(N)nc3cccnc3c2n1CCNC(=O)OC(C)(C)C,118 to 120 °C
9,CC(C)n1nc(-c2sc(C(=O)NC3CC3)nc2-c2ccccc2)ccc1=O,127 to 128 °C
10,CC(C)(C)C(=O)OCCc1c(-c2ccccc2)nc(N)n2ncnc12,160 °C
11,COc1ncccc1-c1cccn2nc(Nc3ccc4ncccc4c3)nc12,247 to 249 °C
12,CCC(Cc1ccc(OC)c(C(=O)NCc2ccc(C(F)(F)F)cc2)c1)C(=O)O (configuration not stated),128 to 130 °C
13,O=C(Nc1ccccc1)C1=CCN(Cc2c[nH]c3ncccc23)CC1,217 to 220 °C
14,Cc1nnc(C(=O)CCCCCCOc2ccc(O)cc2)o1,134 to 135 °C
15,O=c1ccc(Br)cn1CC1(O)CCN(Cc2ccccc2)CC1,146 to 148 °C
16,CCCCSc1cc(C(=O)OCC#N)cc(S(N)(=O)=O)c1Oc1ccccc1,134 to 135 °C
17,C#CCNC1=NS(=O)(=O)N=C1NCCSCc1csc(NC(=N)N)n1,176 to 178 °C
18,CC(C)(C)OC(=O)C[C@@H](CC1CCCC1)C(=O)O,86.5 to 88 °C
19,CC1(O)OC(=O)c2ccc(Oc3ccc(C(F)(F)F)cc3Cl)cc21 (configuration not stated),100 to 103 °C
20,COc1ccc(Nc2nc(-c3ccncc3)cs2)nc1,213 to 214 °C
21,O=C(O)C[C@@]1(C[N+](=O)[O-])C[C@H]2CCC[C@H]21,64 to 66 °C

row,SMILES,melting point
1,CN(CC(=O)C(Cc1ccccc1)NC(=O)c1ccccc1)C(=O)OC(Cc1ccccc1)C(=O)O (configuration not stated),52 to 60 °C
2,CCCCCCCCCCC(=O)C(=O)N[C@@H](CCCC)CCC(=O)O,50 to 52 °C
3,CN(Cc1ccc(NC(=O)C2=Cc3cc(-c4ccc(N5CCCC5)cc4)ccc3OCC2)cc1)C1CCOCC1,210 to 211 °C
4,O=C(CCCSc1ccccc1)N1C(=O)OCC1Cc1ccccc1 (configuration not stated),84 to 85 °C
5,Cc1ccccc1C(=O)N(CN(C)C)c1ccc(C(=O)N2Cc3ccccc3Cc3ccccc32)cc1,131 to 133 °C
6,O=C(O)C1=Cc2cc(Cl)cnc2NC1C(F)(F)F (configuration not stated),287 to 288 °C
7,OCc1c(-c2ccccc2)nn2c1-c1ccccc1CC2,185 to 187 °C
8,O=P(O)(O)C(CCCc1ccc(-c2ccccc2)cc1)P(=O)(O)O,199 to 200 °C
9,COC(=O)c1sccc1NC(=O)c1ccccc1SSc1ccccc1C(=O)Nc1ccsc1C(=O)OC,250 to 252 °C
10,O=[N+]([O-])c1cnc(Sc2n[nH]c(-c3ccccc3)n2)s1,155 to 157 °C
11,Cn1cnc2cc(F)ccc2c1=O,133 to 135 °C
12,CCOC(=O)C(=CNc1ncnc2ccc([N+](=O)[O-])cc12)C(=O)OCC,228 to 230 °C
13,NS(=O)(=O)c1ccccc1CCCl,168 to 171 °C
14,COc1cc(Nc2c(C#N)cnc3cc(C#CCCN4CCNCC4)c(OC)cc23)c(Cl)cc1Cl,188 to 190 °C
15,CC(C)(C)c1cc(CCc2ccccc2NC(=O)Nc2ccccc2)cc(C(C)(C)C)c1O,207 °C
16,OCC1OC(OC2C(CO)OC(CO)C2O)C(O)C(O)C1O (configuration not stated),162 to 164 °C
17,CC(C)(C)OC(=O)c1ccc(C=NO)cc1,113 to 114 °C
18,COc1ccc(C(=O)CO)cc1,101 to 103 °C
19,COC(=O)C1=C(S(=O)(=O)NC(=O)Nc2nc(C)cc(OC)n2)CCC1,161 to 163 °C
20,CN(C)C1(c2ccccc2)CCC2(OCCc3c2[nH]c2ccccc32)C(CC#N)C1 (configuration not stated),260 to 267 °C
21,O=C1c2cccc3c(Cl)ccc(c23)C(=O)N1O,234 to 236 °C

row,SMILES,melting point
1,CCCC1(C)C(=O)NC(=O)N1c1ccc(C)cc1 (configuration not stated),158 °C
2,COc1ccc(C(=O)Cc2c(Cl)cncc2Cl)cc1OC1CCCC1,119 to 120 °C
3,Cc1cc(C(=O)NS(=O)(=O)c2ccccc2Cl)nc(Cl)n1,170 to 171 °C
4,CN(NC(=O)c1ccccc1C(=O)O)c1nc(-c2ccccc2)cs1,122 to 124 °C
5,NNc1cc(OC2CCCC2)c(Cl)cc1F,77 to 79 °C
6,COc1ccc(-c2cnc3[nH]cc(C(=O)NC4CCN(C(C)=O)C4)c3n2)cc1OC (configuration not stated),211 to 212 °C
7,COC(=O)C1=C(C)NC(C)=C(C(=O)OC)C1c1ccccc1-c1ccsc1,164 to 166 °C
8,CCOC(=O)C=Nc1c(Cl)cccc1C(=O)O,175 °C
9,O=C(O)c1cc2c(s1)CCc1ccccc1-2,205 to 208 °C
10,CC12CCC3C(CCC4CC(F)CCC43C)C1CCC2O (configuration not stated),150 to 151 °C
11,COCn1c(-c2nccs2)c(Cl)c2cccc([N+](=O)[O-])c21,106 to 107 °C
12,COC1=C(OC)C(=O)C2=C(CCC(CCOc3ccc(F)cc3)CC2)C1=O,91 to 93 °C
13,CCOC(=O)c1cc(Oc2ccc(C(F)(F)F)cc2Cl)ccc1[N+](=O)[O-],156 to 160 °C
14,O=C(O)CCSC1c2ccccc2COc2ccc(OCc3ccc4cc(Cl)ccc4n3)cc21 (configuration not stated),178 to 180 °C
15,O=[N+]([O-])c1cc(-n2ccnc2)ccc1Sc1cccc2cnccc12,187 to 189 °C
16,CNc1nc(OC)c(C(=O)OC)cc1Br,136 to 138 °C
17,O=C(c1cccs1)N1CCCC1,66 to 68 °C
18,CCOC(=O)CC(=O)c1cc(OC)c(OC)c([N+](=O)[O-])c1,67 to 68 °C
19,CC(C)(C)OC(=O)NCc1ccc(C(=O)NCCC(=O)OCc2ccccc2)cc1,113 to 116 °C
20,COc1cc2ncc(C#N)c(Nc3ccc(C)c(O)c3)c2cc1OC,222 to 224 °C

# The remaining lines, values ahead:
row,melting point,SMILES
1,218 °C,COC(C)(C)[C@H]1CCCN1NC(=O)Nc1cccc2c1C(=O)c1c-2n[nH]c1-c1ccc(N2CCNCC2)cc1
2,170 to 173 °C,O=C1C(c2ccccc2)=CC(=O)c2c(O)c(-c3ccccc3)cc(O)c21
3,252 °C,O=C(O)C=Cc1ccc(-c2ccc3ncnc(Nc4ccc(OCc5cccc(F)c5)c(Cl)c4)c3c2)s1
4,297 to 299 °C,Cc1[nH]c(=O)c(C#N)cc1-c1ccccc1OCC(=O)O
5,84 to 86 °C,CC(C(=O)O)c1ccc(Oc2ccc(F)cc2)cc1 (configuration not stated)
6,286 to 289 °C,CC1(C)CCC(C)(C)c2cc3c(cc21)CCc1c(-c2ccc(C(=O)O)cc2)ccnc1-3
7,193 to 196 °C,CC(C)(C)OC(=O)N1CCC(C(c2cc(F)ccc2F)S(=O)(=O)c2ccc(Cl)cc2)CC1 (configuration not stated)
8,182 to 184 °C,COc1ccc(/C(C)=C\c2ccc(C(=O)O)cc2)cc1C(C)(C)C
9,130 to 131 °C,Cc1c(-c2ccc(F)cc2)nnn1CCC#Cc1ccccn1
10,223 to 225 °C,CC(=O)NC[C@H]1CN(c2ccc(C3CCN(C(=O)c4cc5ccccc5[nH]4)CC3)c(F)c2)C(=O)O1
11,121 to 123 °C,Cc1c(-c2ccc(O)cc2)n(Cc2ccc(OCCN3CCCC(C)C3)cc2)c2ccc(O)cc12 (configuration not stated)
12,169 to 170 °C,CC(=O)COc1c(-c2ccc(S(C)(=O)=O)cc2)cnn(-c2ccc(F)c(F)c2)c1=O
13,138 °C,Cc1ccc(S(=O)(=O)OC[C@H]2COc3ccc([N+](=O)[O-])cc3O2)cc1
14,166 to 167 °C,CCCn1c2c(c3ccccc3c1=O)C(=O)c1ccccc1-2
15,148 to 150 °C,O=S(=O)(c1ccc(I)cc1)N1CCC(Br)(Br)C(c2ccc(Cl)c(C(F)(F)F)c2)=N1
16,123 to 124 °C,COC(=O)c1cc(Cl)ccc1-n1c(C)nnc1CCl
17,127 to 129 °C,CCCC(=O)NCCC1=C(Cc2ccccc2)Cc2ccc(OC)cc21
18,264 to 266 °C,COC(=O)c1ccc(C=Cc2ccc(-c3cc4cc(Cl)ccc4o3)cc2)cc1

row,melting point,SMILES
1,215 to 220 °C,O=c1ccc(-c2ccc(Oc3ccc4c(c3)CCN(C3CCC3)CC4)nc2)n[nH]1
2,184 °C,COc1nn(-c2cccc(NC(C)=O)c2)c(=O)n(Cc2ccc3c(c2)OC(F)(F)O3)c1=O
3,106 to 107 °C,CC(=O)n1nc(CN2CCc3ccccc3C2)c2ccc(F)cc21
4,157 to 159 °C,O=C1COC(CNC(=O)c2cccnc2Oc2ccc(F)cc2)CN1 (configuration not stated)
5,153 to 154 °C,Cc1cccc(COc2cccc(OCc3ccc4cc(F)ccc4n3)c2)c1C(=O)O
6,214 to 215 °C,CC(=O)Nc1ccc(-c2ccc(C(C)=O)o2)cc1
7,155 to 157 °C,Cc1nc(-c2ccccc2)cc(-c2cccc([N+](=O)[O-])c2)c1CBr
8,181 °C,CC(C)N1CCN(c2ccc(Nc3cc(-c4ccc5c(CCO)cn(C)c5c4)c(Cl)n4ccnc34)nc2)CC1
9,207 to 208 °C,N#CCCNC(=O)c1cccc(-c2cccc3nn(Cc4cc(F)cc(Cl)c4)cc23)c1
10,104 to 106 °C,CON(c1ccc([N+](=O)[O-])cc1F)S(=O)(=O)c1ccc(Cl)c(C(F)(F)F)c1
11,185 °C,CCOC(=O)C1C(=O)Nc2ccccc2SC1c1ccc(C)cc1 (configuration not stated)
12,102 °C,CCN1C(=O)C(C)N(c2ccc(Oc3ccccc3)cc2)C1=S (configuration not stated)
13,303 to 306 °C,CC(=O)Nc1ccc(CN2C(=O)[C@H]3CCC[C@H]3N(C(=O)CN3C(=O)c4ccccc4C3=O)c3ccccc32)cc1 (relative stereo)
14,116 to 124 °C,CCOC(=O)c1cn(-c2cc(N)c(F)c(F)c2F)c2cc(F)c(F)cc2c1=O
15,200 to 201 °C,COC(=O)Cc1ccc(-c2cc(O)c3ccccc3c2O)n1C
16,< 20 °C,COC(=O)C(C)(C)Oc1ccc(-c2ccc(CCNC(=O)c3cc(Cl)ccc3OC)cc2)cc1
17,114 °C,O=C(CCCC(=O)N1C(=O)OC[C@@H]1Cc1ccccc1)c1ccc(F)cc1
